Measured values published in patent US20240425523A1, “Compounds for the Degradation of EGFR Kinase” (Beigene Switzerland GMBH, priority 2023, published 2024).

What was measured:
Type in all cases: cell-based
[1] = molecular target: T1, EGFR L858R (BaF3-L858R cells) (Homo sapiens, UniProt P00533, L858R); assay: Cell degradation of EGFR, HTRF assay, BaF3-L858R cells; details: 16 h treatment; for DC50: EGFR degradation; for Dmax: maximum percentage of degradation
T1 construct: host or cells: BaF3
Outline: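 BaF3-L858R cells treated 16 h at 37° C, 5% CO2 with compound (top 10 uM final, 5-fold, 8 doses, 0.1% DMSO). DC50 from four-parameter fit; Dmax is maximum percent degradation.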

[2] = molecular target: p-EGFR Del19/C797S (H1975-clone #23 cells) (Homo sapiens, UniProt P00533); assay: Cell p-EGFR inhibition assay, HTRF, H1975-clone#23 (DEL19/C797S) cells; details: 16 h treatment; for Imax (%): maximum percentage of pEGFR inhibition; for IC50: pEGFR inhibition
Outline: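 Phospho-EGFR read by overnight HTRF on lysates, normalized to DMSO-treated high control; IC50, Hill slope and Imax fitted. Compounds were applied for 16 h (10 uM top, 5-fold steps, 8 doses) to an H1975 single clone carrying only exogenous Del19/C797S EGFR after sgRNA knockout of endogenous copies.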

[3] = molecular target: T2, p-EGFR L858R (BaF3-L858R cells) (Homo sapiens, UniProt P00533, L858R); assay: Cell p-EGFR inhibition assay, HTRF, BaF3-L858R cells; details: 16 h treatment; for Imax (%): maximum percentage of pEGFR inhibition; for IC50: pEGFR inhibition
T2 construct: host or cells: BaF3
Outline: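 BaF3-L858R cells treated 16 h at 37 °C, 5% CO2 with compound from 10 uM top, 5-fold dilutions, 8 doses, in 0.1% DMSO medium. Lysates read overnight by HTRF p-EGFR antibodies; IC50 fitted to four-parameter curve against DMSO high control.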

[4] = molecular target: T3, EGFR-L858R/C797S (H1975-clone #8 cells) (Homo sapiens, UniProt P00533, C797S/L858R); assay: Cell degradation of EGFR, HTRF assay, H1975-clone#8 (L858R/C797S) cells; details: 16 h treatment; for DC50: EGFR degradation; for Dmax: maximum percentage of degradation
T3 construct: expressed in transfected cells; host or cells: H1975 (endogenous EGFR knocked out, clone #8)

SMILES | DC50 [1] [nM] | Dmax [1] [%] | Imax (%) [2] [%] | IC50 [2] [nM] | Imax (%) [3] [%] | IC50 [3] [nM] | DC50 [4] [nM] | Dmax [4] [%]
Cc1cc2cc(n1)-c1c(C)nn(C)c1OC[C@H]1CC[C@H](C1)CN1/C(=N/C2=O)Nc2ccc(N3C[C@H](C)N(C4CCN(c5cc(F)c([C@H]6CCC(=O)NC6=O)c(F)c5)CC4)C[C@@H]3C)cc21 [Example 197, (R)-3-(4-(4-((2S,5S)-2,5-dimethyl-4-((7^1R,7^3S,E)-1^1,1^3,2^6-trimethyl-3-oxo-5^2,5^3-dihydro-1^1H,5^1H-9-oxa-4-aza-5(2,1)-benzo[d]imidazola-2(2,4)-pyridina-1(4,5)-pyrazola-7(1,3)-cyclopentanacyclononaphane-5^6-yl)piperazin-1-yl)piperidin-1-yl)-2,6-difluorophenyl)piperidine-2,6-dione] | 8.79 | 74 | 103.49 | 3.38 | 101.23 | 9.16 | 7.24 | 89.7
Cc1cc2cc(n1)-c1c(C)nn(C)c1OC[C@H]1CC[C@H](C1)CN1/C(=N/C2=O)Nc2ccc(N3[C@@H](C)CN(C4CCN(c5cc(F)c([C@H]6CCC(=O)NC6=O)c(F)c5)CC4)C[C@@H]3C)cc21 [Example 198, (R)-3-(4-(4-((3S,5S)-3,5-dimethyl-4-((7^1R,7^3S,E)-1^1,1^3,2^6-trimethyl-3-oxo-5^2,5^3-dihydro-1^1H,5^1H-9-oxa-4-aza-5(2,1)-benzo[d]imidazola-2(2,4)-pyridina-1(4,5)-pyrazola-7(1,3)-cyclopentanacyclononaphane-5^6-yl)piperazin-1-yl)piperidin-1-yl)-2,6-difluorophenyl)piperidine-2,6-dione] | 7.56 | 89.7 | 102.48 | 3.18 | 101.37 | 6.66 | 4.41 | 100
Cc1cc2cc(n1)-c1c(C)nn(C)c1OC[C@H]1CC[C@H](C1)CN1/C(=N/C2=O)Nc2ccc(N3CCN(CC4CN(c5cc(F)c([C@H]6CCC(=O)NC6=O)c(F)c5)C4)CC3)cc21 [Example 199, (R)-3-(2,6-difluoro-4-(3-((4-((7^1R,7^3S,E)-1^1,1^3,2^6-trimethyl-3-oxo-5^2,5^3-dihydro-1^1H,5^1H-9-oxa-4-aza-5(2,1)-benzo[d]imidazola-2(2,4)-pyridina-1(4,5)-pyrazola-7(1,3)-cyclopentanacyclononaphane-5^6-yl)piperazin-1-yl)methyl)azetidin-1-yl)phenyl)piperidine-2,6-dione] | 6.02 | 82.5 | 102.91 | 2.92 | 99.05 | < 0.128 | 2.28 | 91.8
Cc1cc2cc(n1)-c1c(C)nn(C)c1OC[C@H]1CC[C@H](C1)CN1/C(=N/C2=O)Nc2ccc(N3C[C@@H](C)N(C4CCN(c5cc(F)c([C@H]6CCC(=O)NC6=O)c(F)c5)CC4)C[C@@H]3C)cc21 [Example 200, (R)-3-(4-(4-((2R,5S)-2,5-dimethyl-4-((7^1R,7^3S,E)-1^1,1^3,2^6-trimethyl-3-oxo-5^2,5^3-dihydro-1^1H,5^1H-9-oxa-4-aza-5(2,1)-benzo[d]imidazola-2(2,4)-pyridina-1(4,5)-pyrazola-7(1,3)-cyclopentanacyclononaphane-5^6-yl)piperazin-1-yl)piperidin-1-yl)-2,6-difluorophenyl)piperidine-2,6-dione] | 2.1 | 85.7 | 102.89 | 1.79 | 98.42 | < 0.128 | 1.87 | 94.6
Cc1cc2cc(n1)-c1c(C)nn(C)c1OC[C@H]1CC[C@H](C1)CN1/C(=N/C2=O)Nc2ccc(N3CCN(C4CCN(c5cc(F)c([C@H]6CCC(=O)NC6=O)c(F)c5)CC4)C[C@H]3CF)cc21 [Example 202, (R)-3-(2,6-difluoro-4-(4-((S)-3-(fluoromethyl)-4-((7R,7^3S,E)-1^1,1^3,2^6-trimethyl-3-oxo-5^2,5^3-dihydro-1^1H,5^1H-9-oxa-4-aza-5(2,1)-benzo[d]imidazola-2(2,4)-pyridina-1(4,5)-pyrazola-7(1,3)-cyclopentanacyclononaphane-5^6-yl)piperazin-1-yl)piperidin-1-yl)phenyl)piperidine-2,6-dione] | 1.06 | 92.5 | 100.52 | 2.48 | 92 | 9.25 | 4.8 | 87.9
Cc1cc2cc(n1)-c1c(C)nn(C)c1OC[C@H]1CC[C@H](C1)CN1/C(=N/C2=O)Nc2ccc(N3CCN(CC4CN(c5cc(F)c([C@H]6CCC(=O)NC6=O)c(F)c5)C4)[C@H](C(F)F)C3)cc21 [Example 205, (R)-3-(4-(3-(((S)-2-(difluoromethyl)-4-((7R,7^3S,E)-1^1,1^3,2^6-trimethyl-3-oxo-5^2,5^3-dihydro-1^1H,5^1H-9-oxa-4-aza-5(2,1)-benzo[d]imidazola-2(2,4)-pyridina-1(4,5)-pyrazola-7(1,3)-cyclopentanacyclononaphane-5^6-yl)piperazin-1-yl)methyl)azetidin-1-yl)-2,6-difluorophenyl)piperidine-2,6-dione] | 5.75 | 90.3 | 99.83 | 0.539 | 92.5 | 1.22 | 3.05 | 85.8
COC[C@H]1CN(c2ccc3c(c2)N2C[C@@H]4CC[C@H](COc5c(c(C)nn5C)-c5cc(cc(C)n5)C(=O)/N=C/2N3)C4)CCN1C1CN(C2CCN(c3cc(F)c([C@H]4CCC(=O)NC4=O)c(F)c3)CC2)C1 [Example 206, (R)-3-(2,6-difluoro-4-(4-(3-((R)-2-(methoxymethyl)-4-((7R,7^3S,E)-1^1,1^32^6-trimethyl-3-oxo-5^2,5^3-dihydro-1^1H,5^1H-9-oxa-4-aza-5(2,1)-benzo[d]imidazola-2(2,4)-pyridina-1(4,5)-pyrazola-7(1,3)-cyclopentanacyclononaphane-5^6-yl)piperazin-1-yl)azetidin-1-yl)piperidin-1-yl)phenyl)piperidine-2,6-dione] | 1.1 | 92.1 | 99.52 | 0.851 | 94.08 | 1.17 | 0.54 | 90.7
COC[C@H]1CN(c2ccc3c(c2)N2C[C@@H]4CC[C@H](COc5c(c(C)nn5C)-c5cc(cc(C)n5)C(=O)/N=C/2N3)C4)CCN1C1CCN(c2ccc(NC3CCC(=O)NC3=O)cc2C)CC1 (stereo partly drawn) [Example 207, 3-((4-(4-((R)-2-(methoxymethyl)-4-((7R,7^3S,E)-1^1,1^3,2^6-trimethyl-3-oxo-5^2,5^3-dihydro-1^1H,5^1H-9-oxa-4-aza-5(2,1)-benzo[d]imidazola-2(2,4)-pyridina-1(4,5)-pyrazola-7(1,3)-cyclopentanacyclononaphane-5^6-yl)piperazin-1-yl)piperidin-1-yl)-3-methylphenyl)amino)piperidine-2,6-dione] | 1.04 | 91.9 | 100.67 | 1.4 | 88.5 | 1.5 | 1.7 | 87.5
COC[C@H]1CN(c2ccc3c(c2)N2C[C@@H]4CC[C@H](COc5c(cnn5C)-c5cc(cc(C)n5)C(=O)/N=C/2N3)C4)CCN1C1CN(C2CCN(c3cc(F)c([C@H]4CCC(=O)NC4=O)c(F)c3)CC2)C1 [Example 208, (R)-3-(4-(4-(3-((R)-4-((7^1R,7^3S,E)-1^1,2^6-dimethyl-3-oxo-5^2,5^3-dihydro-1^1H,5^1H-9-oxa-4-aza-5(2,1)-benzo[d]imidazola-2(2,4)-pyridina-1(4,5)-pyrazola-7(1,3)-cyclopentanacyclononaphane-5^6-yl)-2-(methoxymethyl)piperazin-1-yl)azetidin-1-yl)piperidin-1-yl)-2,6-difluorophenyl)piperidine-2,6-dione] | 0.67 | 91.6 | 99.76 | 3.02 | 91.5 | 1.21 | 1.01 | 70.7
Cc1cc2cc(n1)-c1c(C)nn(C)c1OC[C@H]1CC[C@H](C1)CN1/C(=N/C2=O)Nc2ccc(N3CCN(CC4CN(c5cc(F)c([C@H]6CCC(=O)NC6=O)c(F)c5)C4)[C@@H](CF)C3)cc21 [Example 210, (R)-3-(2,6-difluoro-4-(3-(((R)-2-(fluoromethyl)-4-((7R,7^3S,E)-1^1,1^3,2^6-trimethyl-3-oxo-5^2,5^3-dihydro-1^1H,5^1H-9-oxa-4-aza-5(2,1)-benzo[d]imidazola-2(2,4)-pyridina-1(4,5)-pyrazola-7(1,3)-cyclopentanacyclononaphane-5^6-yl)piperazin-1-yl)methyl)azetidin-1-yl)phenyl)piperidine-2,6-dione] | 0.74 | 90.2 | 99.96 | 1.56 | 89.17 | 1.04 | 3.72 | 86.9
